Results taken from the NIST ThermoML archive (doi:10.1021/je100017w).

Details: Liquid

CC[Si](OC)(OC)OC [ethyltrimethoxysilane]
Details | vapor or sublimation pressure [kPa]
306.35 K | 2.325
311.45 K | 3.325
315.95 K | 4.325
319.8 K | 5.325
324.15 K | 6.325
328.65 K | 8.325
334.15 K | 10.32
338.95 K | 13.32
343.65 K | 16.32
347.65 K | 19.32
351.35 K | 22.32
354.55 K | 25.32
357.45 K | 28.32
360.15 K | 31.32
362.65 K | 34.33
364.95 K | 37.33
367.55 K | 40.33
369.65 K | 43.33
371.05 K | 46.33
374.05 K | 49.33
375.85 K | 52.33
376.45 K | 55.33
379.85 K | 58.33
381.15 K | 61.33
382.55 K | 64.33
383.15 K | 67.33
384.85 K | 70.33
385.85 K | 73.33
386.65 K | 76.33
387.55 K | 79.33
388.95 K | 82.33
389.95 K | 85.33
390.95 K | 88.33
392.95 K | 91.33
393.05 K | 94.33
393.75 K | 97.33
393.95 K | 100.33
397.15 K | 101.33
